Assay results published in patent US10376555B2, “Identification of cyclic peptide agonists of galanin receptor 2 and 3 guided by spexin solution structure” (Hong Kong Baptist University, priority 2017, dated 2019).
Positions of bridges follow the written chain, without caps; N, C: chain ends. Residues, ends and D or L forms follow the SMILES beside them. No end group written: not given here.

Tests used:
hGalR1 = target: T1, hGalR1 (Homo sapiens, UniProt P47211); experiment: SRE-Luc receptor activation assay, hGalR1; assay type: cell-based; settings: for hGalR1 EC50: HEK293 cells transfected with hGalR1, Gqi, SRE-Luc, 6 h treatment, full-dose; for hGalR1 Emax: Relative to hGAL Emax
T1 sequence (P47211 1-349): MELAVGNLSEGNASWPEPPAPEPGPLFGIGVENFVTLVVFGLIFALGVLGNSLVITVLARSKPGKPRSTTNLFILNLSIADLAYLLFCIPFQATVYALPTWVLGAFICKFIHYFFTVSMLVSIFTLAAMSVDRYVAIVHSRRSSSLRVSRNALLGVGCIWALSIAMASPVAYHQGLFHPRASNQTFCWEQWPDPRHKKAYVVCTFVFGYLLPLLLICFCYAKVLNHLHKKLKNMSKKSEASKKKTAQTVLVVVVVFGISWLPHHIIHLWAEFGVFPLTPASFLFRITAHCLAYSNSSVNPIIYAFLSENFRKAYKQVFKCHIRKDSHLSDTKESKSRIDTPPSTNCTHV

hGalR2 = target: T2, hGalR2 (Homo sapiens, UniProt O43603); experiment: SRE-Luc receptor activation assay, hGalR2; assay type: cell-based; settings: for hGalR2 Emax: Relative to hSPX Emax; for activity on GalR2, in words: full-dose SRE-Luc; for effect of cysteine mutation on receptor activation of GalR2: single dose (1 μM, 6 hours), compared with wild type hSPX
T2 construct: host or cells: HEK293
T2 sequence (O43603 1-387): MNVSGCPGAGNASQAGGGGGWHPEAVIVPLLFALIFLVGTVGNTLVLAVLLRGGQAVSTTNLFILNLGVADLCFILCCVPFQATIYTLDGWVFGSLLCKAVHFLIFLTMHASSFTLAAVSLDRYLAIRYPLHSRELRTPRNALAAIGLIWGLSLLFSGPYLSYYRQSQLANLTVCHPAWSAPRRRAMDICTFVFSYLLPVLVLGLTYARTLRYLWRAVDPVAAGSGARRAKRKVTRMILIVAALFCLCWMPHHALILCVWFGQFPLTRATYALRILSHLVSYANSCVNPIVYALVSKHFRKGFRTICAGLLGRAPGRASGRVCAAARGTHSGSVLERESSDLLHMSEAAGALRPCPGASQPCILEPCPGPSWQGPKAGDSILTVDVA

hGalR3 = target: T3, hGalR3 (Homo sapiens, UniProt O60755); experiment: SRE-Luc receptor activation assay, hGalR3; assay type: cell-based; settings: for hGalR3 Emax: Relative to hSPX Emax; for activity on GalR3, in words: full-dose SRE-Luc; for effect of cysteine mutation on receptor activation of GalR3: single dose (1 μM, 6 hours), compared with wild type hSPX
T3 construct: host or cells: HEK293
T3 sequence (O60755 1-368): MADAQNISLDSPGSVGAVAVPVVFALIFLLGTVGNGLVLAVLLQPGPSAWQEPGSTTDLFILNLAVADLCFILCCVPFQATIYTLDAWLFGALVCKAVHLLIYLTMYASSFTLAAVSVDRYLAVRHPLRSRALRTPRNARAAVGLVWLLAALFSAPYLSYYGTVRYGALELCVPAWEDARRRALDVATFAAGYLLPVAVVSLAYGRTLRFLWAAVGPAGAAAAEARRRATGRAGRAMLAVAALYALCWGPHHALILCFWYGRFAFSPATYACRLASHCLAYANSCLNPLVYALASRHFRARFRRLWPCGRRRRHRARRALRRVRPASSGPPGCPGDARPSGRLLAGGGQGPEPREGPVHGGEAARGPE

[1] = In vitro serum stability assay (RP-HPLC); assay type: in vitro ADME, rat; settings: rat serum in RPMI 1640, 37° C., 100 μg/mL; read-out: serum half-life (t1/2)
Method: The serum stability of CSAs was tested using an in vitro assay followed by reverse-phase high-performance liquid chromatography (RP-HPLC) analysis (FIGS. 33-38).
750 μL RPMI medium 1640 (Thermo Fisher Scientific) was mixed with […] rat serum, and incubated at 37° C. for 15 min before adding peptide. The peptide dissolved in water was added into the reaction buffer to make a final concentration of 100 μg/mL. At each time point (5, 15, 30, 60, 120, 240, and 480 min), 100 μL reaction solution were taken, and mixed with 200 μL 6% trichloroacetic acid (TCA, Sigma-Aldrich). The resulting cloudy solution was cooled at 4° C. for 15 min, and centrifuged for 10 mins at 13,000 rpm. The supernatant was then analyzed by RP-HPLC. The extent of intact peptide was calculated based on the peak area and was normalized using a control sample.

Compound	hGalR1 EC50 (hGalR1)	hGalR1 Emax (hGalR1)	hGalR2 Emax (hGalR2)	activity on GalR1, in words (hGalR1; full-dose SRE-Luc)	EC50 (hGalR2)	hGalR3 EC50 (hGalR3; HEK293 cells transfected with hGalR3, Gqi, SRE-Luc, 6 h treatment, full-dose)	hGalR3 Emax (hGalR3)	activity on GalR3, in words (hGalR3)	half-life at 100 μg/mL [1]	EC50 (hGalR3)	activity on GalR2, in words (hGalR2)	effect of cysteine mutation on receptor activation of GalR2 (hGalR2)	effect of cysteine mutation on receptor activation of GalR3 (hGalR3)
CSCC[C@@H]1NC(=O)[C@H](C)NC(=O)[C@H](CCC(N)=O)NC(=O)[C@@H](NC(=O)[C@@H](NC(=O)[C@H](Cc2c[nH]c3ccccc23)NC(=O)[C@@H](N)CC(N)=O)[C@@H](C)O)CSSC[C@@H](C(=O)N[C@@H](CCC(N)=O)C(N)=O)NC(=O)CNC(=O)[C@H](CCCCN)NC(=O)[C@H](CC(C)C)NC(=O)[C@H](Cc2ccc(O)cc2)NC(=O)[C@H](CC(C)C)NC1=O [LH102] (H-NWTCQAMLYLKGCQ-NH2; disulfide 4-13; N-terminus assumed)	N.M.	N.M.	1.08										
CC(=O)N[C@H]1CSSC[C@@H](C(=O)N[C@@H](Cc2c[nH]cn2)C(=O)N[C@@H](C)C(=O)N[C@H](C(N)=O)C(C)C)NC(=O)CNC(=O)[C@H](CC(C)C)NC(=O)[C@H](CC(C)C)NC(=O)[C@H](Cc2ccc(O)cc2)NC(=O)CNC(=O)[C@H](C)NC(=O)[C@H](CO)NC(=O)[C@H](CC(N)=O)NC(=O)[C@H](CC(C)C)NC(=O)[C@H]([C@@H](C)O)NC(=O)[C@H](Cc2c[nH]c3ccccc23)NC1=O [LH201 (Ac)] (Ac-CWTLNSAGYLLGCHAV-NH2; disulfide 1-13)	N.M.	0.22	1.16	No activity	0.48 µM	N.M.	0.20	No activity	51.9 min				
CC(C)C[C@H](NC(=O)[C@H](CC(C)C)NC(=O)[C@H](Cc1ccc(O)cc1)NC(=O)CNC(=O)[C@H](C)NC(=O)[C@H](CO)NC(=O)[C@H](CC(N)=O)NC(=O)[C@H](CC(C)C)NC(=O)[C@@H](NC(=O)[C@H](Cc1c[nH]c2ccccc12)NC(=O)CN)[C@@H](C)O)C(=O)NCC(=O)N1CCC[C@H]1C(=O)N[C@@H](Cc1c[nH]cn1)C(=O)N[C@@H](C)C(=O)N[C@H](C(N)=O)C(C)C [hGAL (1-16), reference compound]			1.02				0.45		14.1 min	> 10 µM			
CC(C)C[C@H](NC(=O)CNC(=O)[C@H](CC(N)=O)NC(=O)[C@H](CCCCN)NC(=O)[C@H](CC(=O)O)NC(=O)[C@H](CO)NC(=O)[C@H](Cc1ccccc1)NC(=O)[C@H](CO)NC(=O)[C@H](CCCNC(=N)N)NC(=O)[C@H](Cc1c[nH]cn1)NC(=O)[C@H](CC(N)=O)NC(=O)CNC(=O)[C@@H](NC(=O)[C@H](C)NC(=O)[C@H](Cc1c[nH]cn1)NC(=O)[C@@H]1CCCN1C(=O)CNC(=O)[C@H](CC(C)C)NC(=O)[C@H](CC(C)C)NC(=O)[C@H](Cc1ccc(O)cc1)NC(=O)CNC(=O)[C@H](C)NC(=O)[C@H](CO)NC(=O)[C@H](CC(N)=O)NC(=O)[C@H](CC(C)C)NC(=O)[C@@H](NC(=O)[C@H](Cc1c[nH]c2ccccc12)NC(=O)CN)[C@@H](C)O)C(C)C)C(=O)N[C@H](C(=O)N[C@@H](CO)C(N)=O)[C@@H](C)O [hGAL, reference compound]			0.94				0.68						
CSCC[C@H](NC(=O)[C@H](C)NC(=O)[C@H](CCC(N)=O)NC(=O)[C@@H]1CCCN1C(=O)[C@@H](NC(=O)[C@H](Cc1c[nH]c2ccccc12)NC(=O)[C@@H](N)CS)[C@@H](C)O)C(=O)N[C@@H](CC(C)C)C(=O)N[C@@H](Cc1ccc(O)cc1)C(=O)N[C@@H](CC(C)C)C(=O)N[C@@H](CCCCN)C(=O)NCC(=O)N[C@@H](C)C(=O)N[C@@H](CCC(N)=O)C(N)=O [hSPX (C1)] (H-CWTPQAMLYLKGAQ-NH2; N-terminus assumed)	N.M.	N.M.	1.05				1.00	little effect on the potency			little effect on the potency	minimum effects	minimum effects
CSCC[C@H](NC(=O)[C@H](C)NC(=O)[C@H](CCC(N)=O)NC(=O)[C@H](CS)NC(=O)[C@@H](NC(=O)[C@H](Cc1c[nH]c2ccccc12)NC(=O)[C@@H](N)CC(N)=O)[C@@H](C)O)C(=O)N[C@@H](CC(C)C)C(=O)N[C@@H](Cc1ccc(O)cc1)C(=O)N[C@@H](CC(C)C)C(=O)N[C@@H](CCCCN)C(=O)NCC(=O)N[C@@H](C)C(=O)N[C@@H](CCC(N)=O)C(N)=O [hSPX (C4)] (H-NWTCQAMLYLKGAQ-NH2; N-terminus assumed)	N.M.	N.M.	0.98				0.91	little effect on the potency			little effect on the potency	minimum effects	minimum effects
CSCC[C@H](NC(=O)[C@H](C)NC(=O)[C@H](CCC(N)=O)NC(=O)[C@@H]1CCCN1C(=O)[C@@H](NC(=O)[C@H](Cc1c[nH]c2ccccc12)NC(=O)[C@@H](N)CC(N)=O)[C@@H](C)O)C(=O)N[C@@H](CC(C)C)C(=O)N[C@@H](Cc1ccc(O)cc1)C(=O)N[C@@H](CC(C)C)C(=O)N[C@@H](CCCCN)C(=O)NCC(=O)N[C@@H](CS)C(=O)N[C@@H](CCC(N)=O)C(N)=O [hSPX (C13)] (H-NWTPQAMLYLKGCQ-NH2; N-terminus assumed)	N.M.	N.M.	0.87				0.88	little effect on the potency			little effect on the potency	minimum effects	minimum effects
C10: hSPX mutant with single mutation to cysteine at position 10 (NWTPQAMLYCKGAQ-NH2)												severely impaired bioactivity	severely impaired bioactivity
C12: hSPX mutant with single mutation to cysteine at position 12 (NWTPQAMLYLKCAQ-NH2)												severely impaired bioactivity	severely impaired bioactivity
C14: hSPX mutant with single mutation to cysteine at position 14 (NWTPQAMLYLKGAC-NH2)												severely impaired bioactivity	severely impaired bioactivity
